Peptide text beside a SMILES is read from it. * marks the point of attachment. Acetyl(5-fluorouracil-1-yl) = O=C(Cn1cc(F)c(=O)[nH]c1=O)*; Methacryloyl = C=C(C)C(=O)*
Columns and labels:
NIH/3T3 fibroblasts [1] = assay: CCK-8 cell viability / cytotoxicity assay; type: cell-based; settings: for inhibitory effect on fibroblasts compared among 5-FuA, 5-FuA-Pep-MA and 5-FuA-Pro-Pro: all the concentrations (80, 125, 250 μM), 48 h, CCK-8, one-way ANOVA, n = 4
Procedure: In vitro cell viability and cytotoxicity. The CCK-8 assays were used to detect the cytotoxicity of
5-Fu and 5-Fu derivatives towards NIH/3T3 fibroblasts. Briefly, NIH/3T3 fibroblasts were cultured
with DMEM medium (containing 10% FBS and 1% penicillin-streptomycin) at 37 °C with 5% CO2.
Then, NIH/3T3 fibroblasts were seeded in 96-well plates at a density of 5 × 10^3 cells/well and
cultured for 12 h to adhere to the bottom of the plates. Subsequently, the medium was replaced with
concentrations of 80, 125, 250 μM, respectively. The cells treated with the neat medium were taken
as the control group. After 48 h of incubation, the CCK-8 kit was added, and the absorption of each
well at 450 nm was measured with a microplate reader (Multiskan MK3, ThermoFisher Scientific,
USA) to calculate the cell viability.

rabbit ear HS model = assay: In vivo HS inhibition study, scar elevation index from H&E sections; parameters: species or system rabbits (Oryctolagus cuniculus); settings: after the 3rd administration (once a week for 3 weeks), before treatment 3.5 in drug-loaded MNs group, untreated HS group 3.3, 5-Fu injection 120 μg per lesion, mean of n = 3
Procedure: We investigated therapeutic effects of separating MNs on HS model in rabbit ears. Among the 15 rabbits, three rabbits were used as the control group (normal skin, NS), and the other 12 rabbits were used to establish HS model. The rabbit ear HS model was established according to a standard method, i.e., 4 HS lesions on each ear and 96 in total. Briefly, the rabbits were anesthetized with sodium pentobarbital (30 mg/kg) and operated under sterile conditions. Then, 4 round-shaped wounds of 7 mm diameter were created on the ventral surface of each ear, which were kept away from the central auricular artery and the periauricular vein. The epidermis, dermis, and perichondrium in each wound was removed thoroughly. After the procedures, the wounds were washed with 0.1% benzalkonium chloride solution to sterilize. In the following 2 weeks, after the rabbits were anesthetized, the newly formed wound tissues were removed to accelerate the formation of HS. […]
The three rabbits without treatment were taken as the control group (group 1, NS). […] The macroscopic images were recorded on the 21st day (before administration), the 29th day (1 week after the 1st administration), the 36th day (1 week after the 2nd administration), the 43rd day (1 week after the 3rd administration) and the 50th day (1 week follow-up). […]

[2] = parameters: method as in earlier work; settings: in blood circulation; ref Oncol. Lett. 2018, 15, 7175; Cancer Res. 1978, 38, 3479; Cancer Biol. Ther., 2012, 13, 1407; Cancer Chemother. Pharmacol. 2013, 71, 351; Biomater. Sci. 2017, 5, 502; cited from earlier work
Description: Response: Thanks for the questions. […] Corticosteroids could reduce inflammation response, promote vasoconstrictive effect, and inhibit fibroblast proliferation to treat HS.

NIH/3T3 fibroblasts [3] = assay: In vitro wound scratch (migration) assay; type: cell-based; settings: 80 μM drug with 0.5% FBS, after 48 h of incubation, Image J, n = 3, control almost complete closure within 48 h
Procedure: In vitro wound scratch assay. Wound scratch assays were used to evaluate the migration of
NIH/3T3 fibroblasts were seeded into 24-well plates at a density of 2 × 10^4 cells/well for 8 h. Then,
the sterile pipette tips were used to draw the scratch in the center of the wells, and the cells scratched
off were washed away with PBS for 3 times. 500 μL of drug solutions consisting of 80 μM of 5-

[4] = tested on: human hypertrophic scar fibroblast (HSFb); assay: Intracellular ROS scavenging (ROS assay kit, DCFH-DA, CLSM); type: cell-based; settings: HSFb stimulated with ROSup, 5-FuA-Pep-MA 50, 100 and 200 μM, 12 h, with increased concentration
Procedure: The migration of cells was imaged with an inversion microscope at 0, 24 and 48 h. The area of the scratch was analyzed by Image J, and the wound healing rate (WHR) was calculated according to the following equation: WHR (%) = (A0 − At)/A0 × 100%, where A0 and At represented the area of scratch at 0 h and t h, respectively.
Intracellular ROS scavenging. ROS assay kit was used to observe the elimination of intracellular ROS by 5-FuA-Pep-MA. Specifically, HSFbs were seeded in 8-well confocal dishes at a density of 1 × 10^4 cells/well and cultured for 12 h to adhere to the bottom of the dishes. […]
Immunohistochemical, fluorescence and immunofluorescence staining of HS tissues. The ROS levels in HS tissues were measured by the fluorescence and immunofluorescence methods on day
43rd. […] The expression of MMP2 and MMP9 in HS tissues were measured by immunohistochemistry and immunofluorescence methods on day 43rd. […]
RNA sequencing and sample collection. […] RNA integrity was assessed using the RNA Nano 6000 Assay Kit of the Bioanalyzer 2100 system (Agilent Technologies, CA, USA). PCR products were purified (AMPure XP system) and library quality was assessed on the Agilent Bioanalyzer 2100 system. […]
Quality control. Firstly, raw data (raw reads) of fastq format were processed through in-house perl scripts. […]

[5] = ROS-responsive cleavage of prodrug by H2O2 (HPLC); type: physicochemical; settings: PBS with 10, 50, 100 and 300 μM H2O2, 37 °C, 24-120 h, HPLC peak area, n = 3
Description: pathological microenvironment of HS tissues determined the drug release rate and […]
Indeed, the size, thickness and duration vary in patients with HS, which could affect the amount of drug needed. […]
fibroblasts/myofibroblasts and the more collagen fibers secreted. Therefore, we could adjust the frequency of treatment for different scar features (size, thickness and […]
3. Figure 3: The ROS response of 5-FuA-Pep-MA prodrug with different concentrations of H2O2 should be shown in both concentration and time.
We have revisited the relevant experiment.
Specifically, 5-FuA-Pep-MA prodrug was incubated with PBS containing different concentrations (10, 50, 100 and 300 μM) of H2O2 at 37 ℃, respectively . 50 μL solutio n was taken out at a pres et time (24, 48, 72, 96 and 120 h), which was analy zed by HPLC. […]
and concentration-dependent (Fig. 3g). […]
For the question3: As described in method:  The peak area obtained from the sample without H2O2 was recorded as A0, while the peak area obtained from the sample with H2O2 was recorded as Ac. The degradation rate was calculated by [(A0-Ac)/A0] À 100% to evaluate the ROS response of peptide prodrug […]
A direct observation of more 5-FU with more H2O2, by HPLC or other methods, either in-vitro or in-vivo, would be more convictive. For example, glucose responsive release of insulin was detected by insulin elisa kit, not the degradation of vesicles […]

Structure (SMILES) | cell viability (NIH/3T3 fibroblasts [1]; 250 μM, 48 h incubation, CCK-8, absorption at 450 nm, mean of n = 4) | scar elevation index (SEI) (rabbit ear HS model) | half-life [2] | inhibitory effect on fibroblasts compared among 5-FuA, 5-FuA-Pep-MA and 5-FuA-Pro-Pro (NIH/3T3 fibroblasts [1]) | wound healing rate (NIH/3T3 fibroblasts [3]) | intracellular ROS fluorescence intensity [4] | ROS-responsive cleavage rate [5]
O=c1[nH]cc(F)c(=O)[nH]1 [5-Fu, 5-Fluorouracil] | 46.9% | 2.2 | 10 to 20 min |  |  |  | 
O=C(O)Cn1cc(F)c(=O)[nH]c1=O [5-FuA, 5-Fuorouracil-1-acetic acid] |  |  |  | no significant difference | 48.3% |  | 
C=C(C)C(=O)NCCCC[C@H](NC(=O)[C@@H]1CCCN1C(=O)[C@@H]1CCCN1C(=O)[C@@H]1CCCN1C(=O)Cn1cc(F)c(=O)[nH]c1=O)C(N)=O [5-FuA-Pep-MA] ({Acetyl(5-fluorouracil-1-yl)}-PPPK(Methacryloyl)-NH2) |  |  |  | no significant difference | 51.6% | significantly reduced | positively correlated with H2O2 concentrations and incubation time
O=C(O)[C@@H]1CCCN1C(=O)[C@@H]1CCCN1C(=O)Cn1cc(F)c(=O)[nH]c1=O [5-FuA-Pro-Pro] |  |  |  | no significant difference | 53.2% |  | 

Reference: PMC10917775, “Endogenous stimuli-responsive separating microneedles to inhibit hypertrophic scar through remodeling the pathological microenvironment” (Nature Communications, 2024)
